Measurements published in patent US20100040568A1, “Steroidal compounds as melanogenesis modifiers and uses thereof” (SkinMedica, Inc., priority 2008, published 2010).

Columns and labels:
[1] = system: MEL-A; assay: MTT cell viability of treated MelanoDerm tissue; type: cell-based, human; details: 0.036% topical
Description: Conessine and Licorice extract were dissolved in 30% ethanol: 70% propylene glycol (PEG) to a final concentration of 0.036% (0.36 mg/ml). A 25 μl aliquot of each compound was applied topically to the Asian MelanoDerm™ tissue (MEL-A) on Days 0, 1, 3, 6, 8, 10 and 13. The MelanoDerm™ tissues were fed every other day with 5 ml fresh NMM-113. Prior to each application, the tissues were washed with 1 ml PBS to remove any residual test compound. Tissues were fixed on Days 13 and 16 for microscopic analysis and histological evaluation. In addition, duplicate tissues were frozen on Days 13 and 16 for melanin assay. 30% ethanol: 70% PEG was used as negative control. Cell viability was measured in accordance with the manufacturer's instructions using the MTT assay kit (MatTek Corp., Ashland, Mass. 01721). One MEL-A tissue from each condition was harvested on day 2 and 7, and MTT assay was performed.

[2] = system: Tyrosinase gene family proteins; assay: Immunoblot of tyrosinase gene family proteins in melan-a cells; type: cell-based, murine; details: various concentrations, 72 hours
Description: Melan-a cells were incubated with various concentrations of conessine for 72 hours. Cell lysates were prepared and separated by 7.5% sodium dodecyl sulfate-polyacrylamide gel and transferred to Immobilon-P membranes. Tyrosinase gene family proteins were detected with antibodies against each protein.

[3] = system: Microphthalmia transcription factor (MITF); assay: Level of microphthalmia transcription factor in melan-a cells; type: cell-based, murine
Description: Melan-a cells were incubated with various concentrations of conessine for 72 hours. Cell lysates were prepared and separated by 7.5% sodium dodecyl sulfate-polyacrylamide gel and transferred to Immobilon-P membranes. Tyrosinase gene family proteins were detected with antibodies against each protein. […] Microphthalmia transcription factor (MITF) is a transcription factor that regulates the expression of tyrosinase gene family. […] Thus, increased levels of tyrosinase gene family proteins with conessine treatment are not due to increased MITF expression in melan-a cells.

[4] = system: melan-a cells; assay: Melanin assay in cultured murine melanocytes (melan-a); type: cell-based; details: 72 hours
Description: The Spectrum Collection library consisting of 2000 drug compounds or natural products was screened to identify novel pigmentation inhibitors or stimulators in cultured murine melanocytes (melan-a). Compounds were dissolved in dimethylsulfoxide (DMSO) to a final concentration of 10 mM. Screening was performed with cultured melanocytes in 24-well plates followed by melanin assay (see below). A minimum change of 50% in melanin formation was established as significant for a pigmentation inhibitor or stimulator. DMSO was used as a negative control and the widely used depigmenting agent, hydroquinone, was used as a positive control on every plate. […] Melan-a cells were plated at 5×10^4 cells per well in 1 ml of culture media in 24-well plates the day before adding the library compounds. All compounds were added at the indicated final concentrations. Cells were harvested after 72 hours of incubation, and melanin assay was performed. For the primary and secondary screening, cells were harvested and dissolved in 200 μl of 2N NaOH in 20% DMSO at 70° C. A 180-μl aliquot of the resulting solution was measured for absorbance at 490 nm. Cells are harvested in extraction buffer (1% Triton X-100, 50 mM Tris, 2 mM EDTA, 150 mM NaCl, pH 7.5) containing a complete protease inhibitor cocktail (Roche). The lysates were centrifuged at 14,000 rpm for 10 minutes at 4° C. BCA protein assay kit (Pierce) was used to measure the protein concentrations of the supernatants, and bovine serum albumin was used as a standard. […] A 180-μl aliquot of the resulting solution was measured for absorbance at 490 nm. The melanin contents were normalized to the total amount of protein. The IC50 value for inhibition of cellular melanin synthesis for conessine was determined by culturing melan-a cells with various concentrations of conessine for 72 hours. Briefly, melan-a cells were plated at 5×10^4 cells per well in 1 ml of culture media in 24-well plates the day before adding conessine. Conessine was added at the indicated final concentrations. DMSO was used as a negative control. Cells were harvested after 72 hours of incubation, and spectrophotometric melanin assay was performed on cell pellets. The melanin contents were normalized to the total amount of protein. Cell viability was determined by using the CellTiter 96 aqueous nonradioactive cell proliferation assay. […] Licorice extract was tested under similar conditions as conessine for its ability to decrease melanin synthesis in melan-a cells (FIG. 11c). Melan-a cells were plated at 5×10^4 cells per well in 1 ml of culture media in 24-well plates the day before adding Licorice extract. 70% ethanol was used as control and the Licorice extract was diluted in cell culture media at the indicated concentrations. […] Cells were harvested after 72 hours of incubation, and spectrophotometric melanin assay was performed on cell pellets. The melanin contents were normalized to the total amount of protein. Cell viability was determined by using the CellTiter 96 aqueous nonradioactive cell proliferation assay.

[5] = system: melan-a cells; assay: CellTiter 96 aqueous nonradioactive cell proliferation assay (cell viability); type: cell-based, murine; details: concentrations below 20 μM
Description: The IC50 value for inhibition of cellular melanin synthesis for conessine was determined by culturing melan-a cells with various concentrations of conessine for 72 hours. Briefly, melan-a cells were plated at 5×10^4 cells per well in 1 ml of culture media in 24-well plates the day before adding conessine. Conessine was added at the indicated final concentrations. DMSO was used as a negative control. Cells were harvested after 72 hours of incubation, and spectrophotometric melanin assay was performed on cell pellets. The melanin contents were normalized to the total amount of protein. Cell viability was determined by using the CellTiter 96 aqueous nonradioactive cell proliferation assay.

[6] = system: Lamp-1 (lysome-associated membrane protein 1); assay: Level of Lamp-1 in melan-a cells; type: cell-based, murine
Description: Melan-a cells were incubated with various concentrations of conessine for 72 hours. Cell lysates were prepared and separated by 7.5% sodium dodecyl sulfate-polyacrylamide gel and transferred to Immobilon-P membranes. Tyrosinase gene family proteins were detected with antibodies against each protein. […] The effect of conessine on the level of Lamp-1 in melan-a cells was examined. A common lineage among the melanosomes and lysosomes is well accepted. Lamp-1 (lysome-associated membrane protein 1) is a lysosome marker. […] Thus, conessine treatment likely results in decreased degradation of both Lamp-1 and tyrosinase gene family proteins (FIG. 12d), thus unexpectedly acting as a melanogenesis […].

CC1C2CCC3C4CC=C5CC(N(C)C)CCC5(C)C4CCC32CN1C (stereo not drawn) [Compound 1, Conessine]
cytotoxicity of treated tissue [1]: no detectable cytotoxicity
cellular levels of tyrosinase family proteins [2]: increases cellular levels of tyrosinase family proteins in a dose-dependent manner
level of MITF [3]: no notable effect
effect on melanin synthesis in melan-a cells ([4]; indicated concentrations): significantly inhibited melanogenesis in a dose-dependent manner
IC50 ([4]; Mus musculus, melan-a cells, melanin normalized to protein, read-out: IC50 value for inhibition of cellular melanin synthesis): ~2500 nM
% of control remaining @ 1 μM ([4]; melanin, melan-a cells, 1 μM): 73.3 % of control
% of control remaining @ 5 μM ([4]; melanin, melan-a cells, 5 μM): 32.2 % of control
cytotoxicity [5]: did not exhibit cytotoxicity
cellular level of Lamp-1 [6]: increases cellular level of Lamp-1
